Assay results from US11939609B2, “Rewiring aberrant cancer signaling to a therapeutic effector response with a synthetic two-component system” (The Board of Trustees of the Leland Stanford Junior …, priority 2017, dated 2024).

What was measured:
[1] = tested on: BT-474, H1975, MCF-7, MCF-10A and MRC-5 cells; conditions: 10 μM carboplatin + 10 μM paclitaxel; 10 μM lapatinib
[2] = tested on: MCF10A cells; test: Caspase-3 activity assay (fluorescent indicator imaging); assay type: cell-based; conditions: non-cancerous breast epithelium line
Excerpt: (§1) To package lentivirus, HEK293T cells at ˜70% confluency were transfected with psPAX2, pMD2.G, and pLL3.7 plasmids using Lipofectamine 2000 (Life Technologies). Two days following transfection, viral supernatant was filtered with a 0.45 μm PES filter before using to infect target cells. rAAVdj-CAG-RASER1C-mCardinal-BID and rAAVdj-mCardinal were produced at the Stanford Gene Vector and Virus Core (Stanford University). Virus infected cells were neither sorted nor purified prior to obtaining the results shown, to remain close to the actual use scenario.
(§2) NucView 488 Caspase-3 substrate (Biotium) and Hoechst 33342 (Invitrogen) were diluted into culture media to final concentrations of 1 μM each. After 1 h of incubation, cells were imaged with the Axiovert 200M with a 10×0.5-NA air objective.

[3] = tested on: MRC5 cells; test: as above; assay type: cell-based; conditions: non-cancerous lung fibroblast line
Excerpt: as §1, §2

Row | SMILES | cytotoxicity across ErbB-hyperactive and ErbB-normal cell lines [1] | apoptosis (caspase-3 fluorescent indicator) [2] | apoptosis (caspase-3 fluorescent indicator) [3]
1 | CS(=O)(=O)CCNCc1ccc(-c2ccc3ncnc(Nc4ccc(OCc5cccc(F)c5)c(Cl)c4)c3c2)o1 [Lapatinib, lapatinib] | varied by cell line, but did not consistently correlate with ErbB status | – | –
2 | CC(=O)O[C@H]1C(=O)[C@@]2(C)[C@H]([C@H](OC(=O)c3ccccc3)[C@]3(O)C[C@H](OC(=O)[C@H](O)[C@@H](NC(=O)c4ccccc4)c4ccccc4)C(C)=C1C3(C)C)[C@]1(OC(C)=O)CO[C@@H]1C[C@@H]2O [paclitaxel] | – | apoptosis is induced by paclitaxel | apoptosis is induced by paclitaxel
